From publication PMC10997603, “Cryo-EM structures of pannexin 1 and 3 reveal differences among pannexin isoforms” (Nature Communications, 2024)
Like-named read-outs stand apart in the source and are kept apart here.

Legend:
PANX3 (PANX3WT) [1] = target: T1, PANX3 (PANX3WT) (Homo sapiens, UniProt Q96QZ0); experiment: microscale thermophoresis; format: binding; conditions: read-out: affinity
T1 construct: full-length, 392 residues; C-terminal TEV site-eGFP-8xHis, GFP/His cut by TEV for purified protein; HEK293S GnTI- (BacMam), GDN-solubilised homoheptamer; transiently transfected HEK293 for patch clamp
T1 sequence (Q96QZ0 1-392): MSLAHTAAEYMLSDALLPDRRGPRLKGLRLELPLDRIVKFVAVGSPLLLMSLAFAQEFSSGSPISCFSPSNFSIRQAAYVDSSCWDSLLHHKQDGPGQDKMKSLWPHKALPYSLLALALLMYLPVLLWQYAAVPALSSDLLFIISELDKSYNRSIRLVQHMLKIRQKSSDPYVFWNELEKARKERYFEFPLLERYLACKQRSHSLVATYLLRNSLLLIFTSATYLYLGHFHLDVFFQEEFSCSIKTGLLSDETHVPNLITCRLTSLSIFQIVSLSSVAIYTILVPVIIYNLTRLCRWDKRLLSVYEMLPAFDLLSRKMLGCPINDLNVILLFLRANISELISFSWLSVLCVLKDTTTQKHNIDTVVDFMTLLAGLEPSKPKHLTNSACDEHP

PANX1 (PANX1WT) [2] = target: T2, PANX1 (PANX1WT) (Homo sapiens, UniProt Q96RD7, K24A); experiment: microscale thermophoresis; format: binding
T2 construct: full-length; C-terminal TEV site-eGFP-8xHis, GFP/His cut by TEV for purified protein; HEK293S GnTI- (BacMam), GDN-solubilised homoheptamer; transiently transfected HEK293 for patch clamp

PANX1 (PANX1WT) [3] = target: T3, PANX1 (PANX1WT) (Homo sapiens, UniProt Q96RD7, R75A); experiment: microscale thermophoresis; conditions: read-out: binding affinity
T3 construct: full-length; C-terminal TEV site-eGFP-8xHis, GFP/His cut by TEV for purified protein; HEK293S GnTI- (BacMam), GDN-solubilised homoheptamer; transiently transfected HEK293 for patch clamp

PANX1 (PANX1WT) [4] = target: T4, PANX1 (PANX1WT) (Homo sapiens, UniProt Q96RD7, R217H); experiment: microscale thermophoresis; conditions: read-out: apparent binding affinity
T4 construct: full-length; C-terminal TEV site-eGFP-8xHis, GFP/His cut by TEV for purified protein; HEK293S GnTI- (BacMam), GDN-solubilised homoheptamer; transiently transfected HEK293 for patch clamp

PANX1 (PANX1WT) [5] = target: T5, PANX1 (PANX1WT) (Homo sapiens, UniProt Q96RD7); experiment: microscale thermophoresis; format: binding
T5 construct: full-length; C-terminal TEV site-eGFP-8xHis, GFP/His cut by TEV for purified protein; HEK293S GnTI- (BacMam), GDN-solubilised homoheptamer; transiently transfected HEK293 for patch clamp

PANX1 (PANX1WT) [6] = target: T6, PANX1 (PANX1WT) (Homo sapiens, UniProt Q96RD7, R75D/W74R); experiment: microscale thermophoresis; format: binding
T6 construct: full-length; C-terminal TEV site-eGFP-8xHis, GFP/His cut by TEV for purified protein; HEK293S GnTI- (BacMam), GDN-solubilised homoheptamer; transiently transfected HEK293 for patch clamp

PANX1 (PANX1WT) [7] = target: T4, PANX1 (PANX1WT); experiment: whole-cell patch clamp, transfected HEK293; format: cell-based; conditions: pH 7.4, 23 °C; 100 µM in bath
PANX3 (PANX3WT) [8] = target: T1, PANX3 (PANX3WT); experiment: whole-cell patch clamp, transfected HEK293; format: cell-based; conditions: pH 7.4, 23 °C; 100 µM in bath
PANX1 (PANX1WT) [9] = target: T7, PANX1 (PANX1WT) (Homo sapiens, UniProt Q96RD7, W74R/R75D); experiment: whole-cell patch clamp, transfected HEK293; format: cell-based; conditions: pH 7.4, 23 °C; 100 µM in bath
T7 construct: full-length; C-terminal TEV site-eGFP-8xHis, GFP/His cut by TEV for purified protein; HEK293S GnTI- (BacMam), GDN-solubilised homoheptamer; transiently transfected HEK293 for patch clamp

[10] = target: the molecule itself; experiment: cryo-EM structure; purified channel in GDN detergent, 25 mM Tris pH 8.0, 100 mM KCl, 1% glycerol, 5 mg/ml; 1 mM ATP added for PANX3; C7 symmetry imposed

T3 sequence (Q96RD7 whole entry R75A): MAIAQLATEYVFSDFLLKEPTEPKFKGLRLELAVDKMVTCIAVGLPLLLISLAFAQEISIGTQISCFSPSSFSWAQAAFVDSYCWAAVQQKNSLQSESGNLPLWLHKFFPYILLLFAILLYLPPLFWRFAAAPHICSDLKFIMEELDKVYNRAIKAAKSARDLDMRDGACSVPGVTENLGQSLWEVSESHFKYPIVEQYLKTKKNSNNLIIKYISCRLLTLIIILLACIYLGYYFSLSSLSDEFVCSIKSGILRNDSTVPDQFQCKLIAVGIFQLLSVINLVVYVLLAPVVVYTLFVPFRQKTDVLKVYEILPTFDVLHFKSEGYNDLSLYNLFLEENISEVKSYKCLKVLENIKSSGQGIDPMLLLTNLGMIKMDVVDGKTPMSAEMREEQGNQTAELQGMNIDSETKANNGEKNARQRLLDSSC
T2 sequence (Q96RD7 whole entry K24A): as the sequence (Q96RD7 whole entry R75A) above, with K24A, A75R counted along it

Molecule: Nc1ncnc2c1ncn2[C@@H]1O[C@H](CO[P@](=O)(O)O[P@](=O)(O)O[P@@](=O)(O)S)[C@@H](O)[C@H]1O [ATP-γS]
- Kd (PANX3 (PANX3WT) [1]): 69 µM
- Kd (PANX1 (PANX1WT) [2]): 94 ± 15 µM
- Kd (PANX1 (PANX1WT) [3]): 114 ± 28 µM
- Kd (PANX1 (PANX1WT) [4]): 186 ± 70 µM
- Kd (PANX1 (PANX1WT) [5]; read-out: apparent binding affinity): 18 ± 4 µM
- Kd (PANX1 (PANX1WT) [6]): 67 ± 17 µM

Molecule: CC1(C)[C@@H](OC(=O)CCC(=O)O)CC[C@]2(C)[C@H]3C(=O)C=C4[C@@H]5C[C@@](C)(C(=O)O)CC[C@]5(C)CC[C@@]4(C)[C@]3(C)CC[C@@H]12 [carbenoxolone]
- inhibition of currents at 100 μM (PANX1 (PANX1WT) [7]): inhibition of PANX1R217H currents by CBX similar to PANX1WT
- inhibition of currents at 100 μM (PANX3 (PANX3WT) [8]): We observe weaker CBX sensitivity in PANX3, in comparison to PANX1
- inhibition of currents at 100 μM (PANX1 (PANX1WT) [9]): decreased inhibition of PANX1WR/RD currents with CBX compared to PANX1WT

Molecule: Nc1ncnc2c1ncn2[C@@H]1O[C@H](COP(=O)(O)OP(=O)(O)OP(=O)(O)O)[C@@H](O)[C@H]1O [ATP]
- Kd (PANX1 (PANX1WT) [5]; read-out: affinity): 21 ± 11 µM

B1: human pannexin 3 (PANX3), full length (natural protein, UniProt Q96QZ0 1-392, looked up)
chain: MSLAHTAAEYMLSDALLPDRRGPRLKGLRLELPLDRIVKFVAVGSPLLLMSLAFAQEFSSGSPISCFSPSNFSIRQAAYVDSSCWDSLLHHKQDGPGQDKMKSLWPHKALPYSLLALALLMYLPVLLWQYAAVPALSSDLLFIISELDKSYNRSIRLVQHMLKIRQKSSDPYVFWNELEKARKERYFEFPLLERYLACKQRSHSLVATYLLRNSLLLIFTSATYLYLGHFHLDVFFQEEFSCSIKTGLLSDETHVPNLITCRLTSLSIFQIVSLSSVAIYTILVPVIIYNLTRLCRWDKRLLSVYEMLPAFDLLSRKMLGCPINDLNVILLFLRANISELISFSWLSVLCVLKDTTTQKHNIDTVVDFMTLLAGLEPSKPKHLTNSACDEHP
modifications: N-acetylglucosamine (NAG) at N71
notes: Pannexin 3, human, UniProt Q96QZ0, full length (392 residues); C-terminal TEV site (ENLYFQ) lies between the protein and eGFP-8xHis; residues of the site may be left after cleavage; Residues 1-24, 160-185 and 373-392 are not seen in the map; also called PANX3WT; source: HEK293S GnTI- cells, BacMam virus, purified (Ni-NTA, TEV cleavage, SEC) in GDN; not shown: eGFP, C-terminal, cleaved; 8x His, …
- stoichiometry N [10]: 7

B2: human pannexin 1 (PANX1), full length, wild type (natural protein, UniProt Q96RD7 1-426, looked up)
chain: MAIAQLATEYVFSDFLLKEPTEPKFKGLRLELAVDKMVTCIAVGLPLLLISLAFAQEISIGTQISCFSPSSFSWRQAAFVDSYCWAAVQQKNSLQSESGNLPLWLHKFFPYILLLFAILLYLPPLFWRFAAAPHICSDLKFIMEELDKVYNRAIKAAKSARDLDMRDGACSVPGVTENLGQSLWEVSESHFKYPIVEQYLKTKKNSNNLIIKYISCRLLTLIIILLACIYLGYYFSLSSLSDEFVCSIKSGILRNDSTVPDQFQCKLIAVGIFQLLSVINLVVYVLLAPVVVYTLFVPFRQKTDVLKVYEILPTFDVLHFKSEGYNDLSLYNLFLEENISEVKSYKCLKVLENIKSSGQGIDPMLLLTNLGMIKMDVVDGKTPMSAEMREEQGNQTAELQGMNIDSETKANNGEKNARQRLLDSSC
notes: Pannexin 1, human, UniProt Q96RD7, full length; C-terminal TEV site (ENLYFQ) lies between the protein and eGFP-8xHis; residues of the site may be left after cleavage; Only a map (no model) was deposited; also called PANX1WT; source: HEK293S GnTI- cells, BacMam virus, purified (Ni-NTA, TEV cleavage, SEC) in GDN; not shown: eGFP, C-terminal, cleaved; 8x His, C-terminal, cleaved
- stoichiometry N [10]: 7

B3: human pannexin 1 double mutant W74R/R75D (natural protein, UniProt Q96RD7 1-426, looked up)
chain: MAIAQLATEYVFSDFLLKEPTEPKFKGLRLELAVDKMVTCIAVGLPLLLISLAFAQEISIGTQISCFSPSSFSRDQAAFVDSYCWAAVQQKNSLQSESGNLPLWLHKFFPYILLLFAILLYLPPLFWRFAAAPHICSDLKFIMEELDKVYNRAIKAAKSARDLDMRDGACSVPGVTENLGQSLWEVSESHFKYPIVEQYLKTKKNSNNLIIKYISCRLLTLIIILLACIYLGYYFSLSSLSDEFVCSIKSGILRNDSTVPDQFQCKLIAVGIFQLLSVINLVVYVLLAPVVVYTLFVPFRQKTDVLKVYEILPTFDVLHFKSEGYNDLSLYNLFLEENISEVKSYKCLKVLENIKSSGQGIDPMLLLTNLGMIKMDVVDGKTPMSAEMREEQGNQTAELQGMNIDSETKANNGEKNARQRLLDSSC
notes: Pannexin 1, human, UniProt Q96RD7, full length, with W74R and R75D; TEV site residues may be left after cleavage; also called PANX1_(WR/RD); PANX1 W74R/R75D; source: HEK293S GnTI- cells, BacMam virus, purified (Ni-NTA, TEV cleavage, SEC) in GDN; not shown: eGFP, C-terminal, cleaved; 8x His, C-terminal, cleaved
- binding result [10]: binds

B4: human pannexin 1 germline mutant R217H (natural protein, UniProt Q96RD7 1-426, looked up)
chain: MAIAQLATEYVFSDFLLKEPTEPKFKGLRLELAVDKMVTCIAVGLPLLLISLAFAQEISIGTQISCFSPSSFSWRQAAFVDSYCWAAVQQKNSLQSESGNLPLWLHKFFPYILLLFAILLYLPPLFWRFAAAPHICSDLKFIMEELDKVYNRAIKAAKSARDLDMRDGACSVPGVTENLGQSLWEVSESHFKYPIVEQYLKTKKNSNNLIIKYISCHLLTLIIILLACIYLGYYFSLSSLSDEFVCSIKSGILRNDSTVPDQFQCKLIAVGIFQLLSVINLVVYVLLAPVVVYTLFVPFRQKTDVLKVYEILPTFDVLHFKSEGYNDLSLYNLFLEENISEVKSYKCLKVLENIKSSGQGIDPMLLLTNLGMIKMDVVDGKTPMSAEMREEQGNQTAELQGMNIDSETKANNGEKNARQRLLDSSC
notes: Pannexin 1, human, UniProt Q96RD7, full length, with the germline substitution R217H (TM3); TEV site residues may be left after cleavage; also called PANX1_(R217H); source: HEK293S GnTI- cells, BacMam virus, purified (Ni-NTA, TEV cleavage, SEC) in GDN; not shown: eGFP, C-terminal, cleaved; 8x His, C-terminal, cleaved
- binding result [10]: binds
